Tested on: Plasmodium berghei
Experiment: Luciferase/luciferin-expressing antifolate-resistant parasites were used to infect a culture of HepG2 cells that were pre-incubated with compounds. Infected hepatocytes emit light due to the luciferase reaction. Assay results are presented as the percent inhibition of light emission compared to control. […]
Format: functional
Settings: sporozoite; for IC90: read-out: LUCIFERASE INFECTION ASSAY - IC90

| SMILES | IC90 [µM] | other results |
| --- | --- | --- |
| COc1cc(OC)cc(-c2cn3c(-c4ccc5c(c4)OCO5)cnc3cn2)c1 | > 8.79 | IC50 (HEPG2TOX_HILL_SLOPE 7.71, HEPG2TOX_R_SQUARED 0.876, PBLUC_HILL_SLOPE 4.45, PBLUC_R_SQUARED 0.518, read-out: LUCIFERASE INFECTION ASSAY - IC50): 5.54 µM |
| Nc1nccnc1C(=O)NNC(=O)c1cccc(C(F)(F)F)c1 | 7.02 | IC50 (HEPG2TOX_HILL_SLOPE 7.79, HEPG2TOX_R_SQUARED 0.494, PBLUC_HILL_SLOPE 4.8, PBLUC_R_SQUARED 0.215, read-out: LUCIFERASE INFECTION ASSAY - IC50): 4.44 µM |
| O=C(Nc1nnc(C(F)(F)F)[nH]1)c1cc(-c2ccc(Br)cc2)nc2ccccc12 | > 10 | IC50 (HEPG2TOX_HILL_SLOPE 7.84, HEPG2TOX_R_SQUARED 0.569, PBLUC_HILL_SLOPE 1.54, PBLUC_R_SQUARED 0.197, read-out: LUCIFERASE INFECTION ASSAY - IC50): 9.57 µM |
| N#C/C(=C1/SC=C(c2ccc(-c3ccccc3)cc2)N1c1ccccc1)c1nnc2n1CCCCC2 | 3.6 | IC50 (HEPG2TOX_HILL_SLOPE 7.81, HEPG2TOX_R_SQUARED 0.359, PBLUC_HILL_SLOPE 26.3, PBLUC_R_SQUARED 0.88, read-out: LUCIFERASE INFECTION ASSAY - IC50): 3.31 µM |
| COc1cc2c(cc1OC)C(c1ccccc1)N(CC(=O)Nc1c(C)cc(C)cc1Cl)CC2 (centres undefined) | 9.2 | IC50 (HEPG2TOX_HILL_SLOPE 7.81, HEPG2TOX_R_SQUARED 0.408, PBLUC_HILL_SLOPE 9.86, PBLUC_R_SQUARED 0.196, read-out: LUCIFERASE INFECTION ASSAY - IC50): 7.36 µM |
| O=[N+]([O-])c1cccc(-c2nnc3c4ccccc4nc(C(F)(F)F)n23)c1 | > 9.19 | IC50 (HEPG2TOX_HILL_SLOPE 7.76, HEPG2TOX_R_SQUARED 0.363, PBLUC_HILL_SLOPE 1.91, PBLUC_R_SQUARED 0.781, read-out: LUCIFERASE INFECTION ASSAY - IC50): 4.42 µM |
| CCCCNC(=O)c1c(NC(=O)c2ccc(OC)cc2)nc2ccc(C)cn12 | 8.55 | IC50 (HEPG2TOX_HILL_SLOPE 7.85, HEPG2TOX_R_SQUARED 0.829, PBLUC_HILL_SLOPE 17, PBLUC_R_SQUARED 0.0919, read-out: LUCIFERASE INFECTION ASSAY - IC50): 7.51 µM |
| Cc1cc(C(=O)CSc2nnc(C3CC3)o2)c(C)n1-c1ccc2c(c1)CCC2 | > 10 | IC50 (HEPG2TOX_HILL_SLOPE 7.74, HEPG2TOX_R_SQUARED 0.677, read-out: LUCIFERASE INFECTION ASSAY - IC50): > 10 µM |
| O=c1c2ccccc2ncn1CCOCCOc1ccccc1-c1ccccc1 | > 8.54 | IC50 (HEPG2TOX_HILL_SLOPE 7.75, HEPG2TOX_R_SQUARED 0.123, read-out: LUCIFERASE INFECTION ASSAY - IC50): > 8.54 µM |
| COCc1cccc(C(=O)Nc2ccc3c(c2)OC(F)(F)O3)c1 | > 10 | IC50 (HEPG2TOX_HILL_SLOPE 7.81, HEPG2TOX_R_SQUARED 0.0219, PBLUC_HILL_SLOPE 15.2, PBLUC_R_SQUARED 0.505, read-out: LUCIFERASE INFECTION ASSAY - IC50): 9.35 µM |
| CCCCc1ccc(CC(=O)NCc2ccc(Cn3cccn3)cc2)cc1 | 8.98 | IC50 (HEPG2TOX_HILL_SLOPE 7.71, 2.15, HEPG2TOX_R_SQUARED 0.735, 0.901, PBLUC_HILL_SLOPE 15.3, 3.44, PBLUC_R_SQUARED 0.0878, 0.809, read-out: LUCIFERASE INFECTION ASSAY - IC50): 7.36 µM |
| CC(C)c1cccc(-c2ccc3nnc(-c4ccc5c(c4)NC(=O)CO5)n3c2)c1 | > 10 | IC50 (HEPG2TOX_HILL_SLOPE 7.77, HEPG2TOX_R_SQUARED 0.643, read-out: LUCIFERASE INFECTION ASSAY - IC50): > 10 µM |
| CCc1ccc(C(=O)Nc2nc3ccc(C)cn3c2C(=O)NC(C)CC)cc1 (centres undefined) | 3.2 | IC50 (HEPG2TOX_HILL_SLOPE 7.71, HEPG2TOX_R_SQUARED 0.568, PBLUC_HILL_SLOPE 11.7, PBLUC_R_SQUARED 0.544, read-out: LUCIFERASE INFECTION ASSAY - IC50): 2.65 µM |
| CC(=O)Nc1cccc(Oc2ccc(C(=O)Nc3ccc4ccccc4c3)cc2[N+](=O)[O-])c1 | 1.68 | IC50 (HEPG2TOX_HILL_SLOPE 7.7, HEPG2TOX_R_SQUARED 0.774, PBLUC_HILL_SLOPE 1.37, PBLUC_R_SQUARED 0.884, read-out: LUCIFERASE INFECTION ASSAY - IC50): 0.337 µM |
| O=C1C=C(c2ccc(Cl)cc2)C(=O)N1Nc1ccc(F)cc1 | > 10.4 | IC50 (HEPG2TOX_HILL_SLOPE 7.85, HEPG2TOX_R_SQUARED 0.837, PBLUC_HILL_SLOPE 13.2, PBLUC_R_SQUARED 0.145, read-out: LUCIFERASE INFECTION ASSAY - IC50): 10.2 µM |
| Cc1sc2nc3c4ccccc4c(NCc4ccccc4CN4CCOCC4)nn3c(=O)c2c1C | > 10 | IC50 (HEPG2TOX_HILL_SLOPE 7.8, HEPG2TOX_R_SQUARED 0.205, PBLUC_HILL_SLOPE 3, PBLUC_R_SQUARED 0.458, read-out: LUCIFERASE INFECTION ASSAY - IC50): 5.95 µM |

| SMILES | IC90 [µM] | other results |
| --- | --- | --- |
| CC(Sc1nc2ccccc2c(=O)n1C)C(=O)Nc1cc([N+](=O)[O-])ccc1Cl (centres undefined) | > 10 | IC50 (HEPG2TOX_HILL_SLOPE 7.72, HEPG2TOX_R_SQUARED 0.92, read-out: LUCIFERASE INFECTION ASSAY - IC50): > 10 µM |
| O=C1C=C(NCCSCc2ccccc2Cl)CC(c2ccc3c(c2)OCO3)C1 (centres undefined) | > 7.93 | IC50 (HEPG2TOX_HILL_SLOPE 7.83, HEPG2TOX_R_SQUARED 0.476, PBLUC_HILL_SLOPE 2.36, PBLUC_R_SQUARED 0.149, read-out: LUCIFERASE INFECTION ASSAY - IC50): 6.56 µM |
| C(=N\N1CCN(c2ccccn2)CC1)/C1=C(Sc2nc3ccccc3s2)CCCC1 | > 10 | IC50 (HEPG2TOX_HILL_SLOPE 7.72, HEPG2TOX_R_SQUARED 0.819, PBLUC_HILL_SLOPE 7.09, PBLUC_R_SQUARED 0.503, read-out: LUCIFERASE INFECTION ASSAY - IC50): 7.43 µM |
| O=c1cc(C(F)(F)F)[nH]n1-c1ccc(OC(F)(F)F)cc1 | > 10.6 | IC50 (HEPG2TOX_HILL_SLOPE 7.72, HEPG2TOX_R_SQUARED 0.792, PBLUC_HILL_SLOPE 12.3, PBLUC_R_SQUARED 0.186, read-out: LUCIFERASE INFECTION ASSAY - IC50): 9.78 µM |
| CC(C)c1ccc(-n2c(SCc3c(F)cccc3Cl)nnc2-c2ccc(C(C)(C)C)cc2)cc1 | 5.28 | IC50 (HEPG2TOX_HILL_SLOPE 7.75, HEPG2TOX_R_SQUARED 0.388, PBLUC_HILL_SLOPE 5.31, PBLUC_R_SQUARED 0.644, read-out: LUCIFERASE INFECTION ASSAY - IC50): 3.49 µM |
| CCOC(=O)c1sc(NC(=O)c2cc(-c3ccc(F)cc3)nc3ccccc23)cc1C | 9.91 | IC50 (HEPG2TOX_HILL_SLOPE 7.73, HEPG2TOX_R_SQUARED 0.935, PBLUC_HILL_SLOPE 14.3, PBLUC_R_SQUARED 0.729, read-out: LUCIFERASE INFECTION ASSAY - IC50): 8.51 µM |
| CCc1c(C(=O)Nc2nc(C)cs2)cnn1-c1cccc(Cl)c1 | 1.14 | IC50 (HEPG2TOX_HILL_SLOPE 7.81, HEPG2TOX_R_SQUARED 0.827, PBLUC_HILL_SLOPE 1.59, PBLUC_R_SQUARED 0.7, read-out: LUCIFERASE INFECTION ASSAY - IC50): 0.286 µM |
| CSc1ccccc1NC(=O)CN1CCN(C(c2ccccc2)c2ccccc2)CC1 | 6.36 | IC50 (HEPG2TOX_HILL_SLOPE 7.79, HEPG2TOX_R_SQUARED 0.752, PBLUC_HILL_SLOPE 3.88, PBLUC_R_SQUARED 0.663, read-out: LUCIFERASE INFECTION ASSAY - IC50): 3.61 µM |
| Nc1ncc(-c2cccc(O)c2)cc1-c1cccc(C(F)(F)F)c1 | 3.76 | IC50 (HEPG2TOX_HILL_SLOPE 7.78, HEPG2TOX_R_SQUARED 0.72, PBLUC_HILL_SLOPE 13.3, PBLUC_R_SQUARED 0.696, read-out: LUCIFERASE INFECTION ASSAY - IC50): 3.18 µM |
| CCn1c2ccccc2c2cc(NC(=O)COC(=O)C3CSC4(c5ccc(F)cc5)CCC(=O)N34)ccc21 (centres undefined) | > 10 | IC50 (HEPG2TOX_HILL_SLOPE 7.81, HEPG2TOX_R_SQUARED 0.779, read-out: LUCIFERASE INFECTION ASSAY - IC50): > 10 µM |
| Cc1ccc(C)c(-c2nn(CC(=O)N3c4ccccc4CC3C)c(=O)c3ccccc23)c1 (centres undefined) | > 10 | IC50 (HEPG2TOX_HILL_SLOPE 7.77, HEPG2TOX_R_SQUARED 0.247, read-out: LUCIFERASE INFECTION ASSAY - IC50): > 10 µM |
| C=CCNC(=O)CSc1nccc(-c2sc3sc(Br)c(C)c3c2C)n1 | > 7.26 | IC50 (HEPG2TOX_HILL_SLOPE 7.83, HEPG2TOX_R_SQUARED 0.735, PBLUC_HILL_SLOPE 0.44, PBLUC_R_SQUARED 0.419, read-out: LUCIFERASE INFECTION ASSAY - IC50): 2.88 µM |
| O=C(COc1ccccc1)Nc1nc2ccccn2c1C(=O)NC1CCCCC1 | 6.99 | IC50 (HEPG2TOX_HILL_SLOPE 7.86, HEPG2TOX_R_SQUARED 0.377, PBLUC_HILL_SLOPE 5.91, PBLUC_R_SQUARED 0.352, read-out: LUCIFERASE INFECTION ASSAY - IC50): 4.82 µM |
| CCCN(CCC)Cc1c(O)ccc2c1O/C(=C\c1ccc(OCC)cc1)C2=O | > 8.34 | IC50 (HEPG2TOX_HILL_SLOPE 7.71, HEPG2TOX_R_SQUARED 0.351, PBLUC_HILL_SLOPE 26.6, PBLUC_R_SQUARED 0.241, read-out: LUCIFERASE INFECTION ASSAY - IC50): 7.9 µM |
| CCNC(=O)C1(C)CCCN1Cc1ccc(-c2ccccc2)cc1 (centres undefined) | > 10.2 | IC50 (HEPG2TOX_HILL_SLOPE 7.75, HEPG2TOX_R_SQUARED 0.0398, PBLUC_HILL_SLOPE 14.9, PBLUC_R_SQUARED 0.606, read-out: LUCIFERASE INFECTION ASSAY - IC50): 9.52 µM |
| CCn1c(-c2cc(C(=O)c3ccccc3O)c[nH]2)nc2ccccc21 | > 10 | IC50 (HEPG2TOX_HILL_SLOPE 7.78, HEPG2TOX_R_SQUARED 0.356, PBLUC_HILL_SLOPE 1.9, PBLUC_R_SQUARED 0.373, read-out: LUCIFERASE INFECTION ASSAY - IC50): 6.07 µM |
